Experimental data taken from US20100016172A1, “Nucleic acid binding assay materials and methods” (priority 2007, published 2010).
Like-named read-outs stand apart in the source and are kept apart here.

Key:
[1] = system: Consensus hairpin DNA; assay: Piper electrophoretic mobility shift assay; type: binding; settings: 5 μM of PIPER
Description: (§1) The dotted line represents residues that are disordered in the crystal structure. The Exd residue R2C, is the unstructured amino acid to which the Cy3 dye is attached. […] The G-rich DNA in the absence of Exd has a band (bottom arrow), which is higher than the Consensus DNA shift with Exd and polyamide.
(§2) Piper Electrophoretic Mobility Shift Assay (FIG. 6D). The G-rich and Consensus hairpin DNA (same DNA as used in Hairpin Induction for EMSA) were incubated with increasing PIPER (Humphrey, W., Dalke, A. & Schulten, K. (1996) J. Mol. Graphics 14, 33-38) concentrations. PIPER final concentrations were […]. The gels were run and processed as above using an 8% acrylamide/3% glycerol gel with 0.5×TBE.

[2] = system: G-rich hairpin DNA; assay: Piper electrophoretic mobility shift assay; type: binding; settings: 5 μM of PIPER
Description: as §1, §2

[3] = system: DNA hairpin target array; assay: CSI array binding assay of Cy3-labeled Exd alone or with polyamide-peptide conjugates; settings: for Motifs emerging from polyamide-Exd CSI data: in addition to G-stretches, Exd 20 nM, polyamide 50 nM
Description: Protein Binding: The microarrays were washed with 150 mM K-glutamate, 50 mM HEPES pH 7.5, 5% glycerol (reaction buffer), for 5 minutes. […] This solution was added to the hybridization chamber and incubated for 30 minutes. Subsequently, the microarrays were washed with reaction buffer and scanned.
To determine the sequence specificity of Exd, we labeled it with Cy3 at a unique cysteine residue on an unstructured portion of the protein (FIG. 6) (Passner, J. M., Ryoo, H. D., Shen, L., Mann, R. S. & Aggarwal, A. K. (1999) Nature 397, 714-719).
Array design for Hox/Exd Cooperative Binding Assay. The duplex DNA sequences are designed as self-complementary palindromes interrupted at the center by a TCCT sequence to facilitate the formation of DNA hairpins (FIG. 7). The 34 residue oligonucleotide is synthesized directly on the glass surface using a maskless array synthesizer (Singh-Gasson, S., Green, R. D., Yeu, Y., Nelson, C., Blattner, F., Sussman, M. R., Cerrina, F. (1999) Nat. Biotechnol. 17, 974-978) that can readily create up to 786,000 spatially resolved features. The unimolecular construction of duplex DNA allows the array to be reused several times without appreciable loss of information. After inducing hairpin formation, we find that greater than 95% of the oligonucleotides in the array form duplexes. In our hairpin design, we added three constant base pairs on either side of the 8 base pairs that were permuted (N′-8).
PA2 and PA3 (ImImPy*Py-γ-ImPyPyPy-β-Dp) are designed to target the sequence 5′-WGWCCW-3′. […] PA2 and PA3 differ solely by a single methylene in the linker connecting the Exd binding peptide to the polyamide (FIG. 8A) (Hauschild, K. E., Metzler, R. E., Arndt, H. D., Moretti, R., Raffaelle, M., Dervan, P. B., Ansari, A. Z. (2005) Proc. Natl. Acad. Sci. U.S.A. 102, 5008-5013). Since these polyamides are not fluorescently labeled, we detect cognate sites bound cooperatively by synthetic Hox mimics and Exd, as well as sites bound by Exd alone.
The raw array data for the above experiments were treated as described in Example 2. […] The Exd binding motif is 5′-NGAN-3′, which is consistent with the structural and genetic studies of Hox-Exd cognate sites (White, R. A., Aspland, S. E., Brookman, J. J., Clayton, L. & Sproat, G. (2000) Mech. Dev. 91, 217-226). In other words, the 5′-GA-3′ dinucleotide is the only required sequence determinant for Exd binding to DNA. Remarkably, the array identified the differences in the arrangement of polyamide and Exd binding sites due to ˜1.25 Å difference in the linker length between PA2 and PA3 (FIG. 8C). The other important result that emerges is that cooperative ternary assembly with Exd stabilizes binding of synthetic Hox mimics to truncated sites (5′-WGWC-3′). This is often seen in nature, where cooperative assembly of transcription factors utilizes sub-optimal binding sites to ensure that only a higher order complex can efficiently bind to a regulatory element (Thanos, D. & Maniatis, T. (1996) Methods Enzymol. 274, 162-173; Ptashne, M. & Gann, A. Genes and Signals. (2002) CSHL Press, New York).

[4] = system: 8-position sequence variation DNA hairpin target array; assay: CSI array binding assay of PA1 (Cy3 fluorescence intensity)
Description: Hairpin Target CSI Microarray. Each hairpin target was composed of a central permuted 8 base pair region with X^1 with a three base pair CGC sequence anchor region flanking either end, with a complementary sequence on X^2. A fluorescently tagged nucleic acid binding assay molecule was applied to the microarray to generate the nucleic acid binding profile for that assay molecule. Analysis of the array signal intensity gives rise to a reference grid showing the binding intensity output for the array. High intensity features indicate tight binding of the assay molecule to that specific target sequence.
Binding Assay: Microarray slides were immersed in 1×PBS (Phosphate Buffered Saline) and placed in a 90° C. water bath for 30 minutes to induce hairpin formation of the oligonucleotides. Slides were then transferred to a tube of non-stringent wash buffer (Saline-Sodium Phosphate-EDTA Buffer, 0.01% v/v Tween-20) and scanned to check for low background (<200 intensity). Microarrays were scanned using a ScanArray 5000 and the image files extracted with GenePix Pro version 3.0.
Polyamide binding: Microarrays prepared as above were placed in the microarray hybridization chamber and washed twice with non-stringent wash buffer. Polyamide was diluted to 5 nM in Hyb buffer (100 mM MES, 1 M NaCl, 20 mM EDTA, 0.01% v/v Tween-20). Polyamide (5 nM) was then added to the hybridization chamber and incubated at room temperature overnight (16 hours). Finally, the microarrays were washed twice with non-stringent wash buffer and scanned.
The array-to-array variability was very low with an average correlation coefficient of 0.88 (FIG. 4A). […] The duplicate features within an array and replicate features between arrays were averaged together to give finalized intensities. These averaged intensities were then converted into Z-scores [z=signal−meant/standard deviation] to reflect the signal-to-noise ratio.
Data Processing: For each replicate, global mean normalization was used to ensure the mean intensity of each microarray was the same. Local mean normalization (Colantuoni, C., Henry, G., Zeger, S. & Pevsner, J. (2002) Bioinformatics 18, 1540-1541) was then used to ensure the intensity was evenly distributed throughout each sector of the microarray surface. Outliers between replicate features were detected using the Q-test at 90% confidence and filtered out. The replicates were then quantile normalized (Bolstad, B. M., Irizarry, R. A., Astrand, M. & Speed, T. P. (2003) Bioinformatics 19, 185-193) in order to account for any possible non-linearity between arrays. Duplicate features were then averaged together. The median of the averaged features was subtracted to account for background.
Z-scores were calculated as |signal−median|/standard deviation. Due to the right-handed tail effect, standard deviation of the background signal was based upon the standard deviation from the median of all signals less than the median. The relationship of Z-score to P-value can be found in Table 1, below. Motifs were then found by running several motif finding algorithms (Bailey, T. L. & Elkan, C. (1994) Proc. of the 2nd Intl. Conference on Intelligent Systems for Mol. Biol., AAAI Press, Menlo Park, Calif., 28-36; Hughes, J. D., Estep, P. W., Tavazoie, S. & Church, G. M. (2000) J. Mol. Biol. 296, 1205-1214; Liu, X. S., Brutlag, D. L. & Liu, J. S. (2002) Nat. Biotechnol. 20, 835-839) on sequences in the highest Z-score bin. Logos (Schneider, T. D. & Stephens, R. M. (1990) Nucl. Acids Res. 18, 6097-6100) of each motif were then created by using sequences from the highest Z-score bin that contained the motif.

[5] = system: DNA cognate sites (sequences used in the footprints); settings: footprinting, cited from earlier work
[6] = system: G-rich hairpin DNA; assay: Hairpin electrophoretic mobility shift assay with Exd and polyamide; type: binding; settings: upon addition of Exd (100 nM)
Description: as §1
(§3) Hairpin Induction for Electrophoretic Mobility Shift Assay (Supplementary Figure S4B). Hairpin DNA was formed by heating synthesized ssDNA to 95° C. for 5 minutes and then rapidly cooling them on ice. The 34mer DNA […] were then labeled with ^32P (as per standard methods). For the hairpin electrophoretic mobility shift assays the concentrations of polyamide used were 50 nM, and Exd was present at a concentration of 100 nM. The reactions were performed in the above buffer and the gels were then run as before with the following exceptions: the gels were 8% acrylamide/3% glycerol gel with 0.5×TBE.

[7] = target: T1, Extradenticle (Exd) homeodomain (Drosophila melanogaster, UniProt P40427 SEQ:1-63); assay: EMSA; 100 nM Exd; band completely shifted; polyamide has no effect; K-glutamate 150 mM, HEPES pH 7.5; settings: tags: none stated for EMSA; label: 32P; hairpin design; likely G-quadruplex
T1 sequence: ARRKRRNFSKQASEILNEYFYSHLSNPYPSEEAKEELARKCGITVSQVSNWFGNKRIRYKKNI
Description: Electrophoretic Mobility Shift Assays: 40mer DNA sequences labeled with ³²P (as per standard methods) were used in all reactions. Reactions were performed in a buffer composed of 150 mM Potassium Glutamate, 50 mM HEPES pH=7.5, 2 mM DTT, 100 ng/μL of BSA, 10% DMSO, and 10% glycerol. For the binding tests, polyamide-peptide conjugates (50 nM final concentration) and ³²P-DNA were incubated together for 30 minutes at 4° C. Exd was then added to bring the reaction volume to 20 μL. Exd final concentrations were 0.033, 0.1, 0.33, 1, 3.3, 10, 33, and 100 nM. These reactions were incubated at 4° C. for 1 hour and then 15 μL was loaded onto a pre-run 10% acrylamide/3% glycerol gel (1×TBE).
as §3, with “³²P” for “^32P”

## O=C1c2ccc3c4ccc5c6c(ccc(c7ccc(c2c37)C(=O)N1CCN1CCCCC1)c64)C(=O)N(CCN1CCCCC1)C5=O [PIPER, N,N-Bis[2-(1-piperidino)ethyl]-3,4,9,10-perylenetetracarboxylic diimide]
[1]
  Aggregation of DNA (immobility from the well): does not
[2]
  Aggregation of DNA (immobility from the well): significant aggregation

## ImImPy*Py-γ-ImPyPyPy-β-Dp [PA2]
[3]
  Motifs emerging from polyamide-Exd CSI data: three clear motifs

## ImImPy*Py-γ-ImPyPyPy-β-Dp [PA3]
[3]
  Motifs emerging from polyamide-Exd CSI data: only two of those motifs

## ImPy*PyPy-γ-ImPyPyPy-β-Dp [PA1]
[4]; Data Point A, average of all features containing ATGTACAT
  Intensity: 19715
[4]; Data Point B, average of all features containing AGTACT
  Intensity: 10952
[4]; Data Point C, average of all features containing ATCTACAT
  Intensity: 3035.5
[4]; Data Point D, average of all features containing ATATACAT
  Intensity: 2073.25
[4]; Data Point E, average of all features containing ATGTATTT
  Intensity: 1426.5
[4]; all sequences containing 5′-WWGATCWW-3′
  Intensity relative to other permutations of the consensus sequence: significantly lower intensities
[4]; double substitution at positions 3 and 6 to W (A/T stretch)
  Effect of substitution on binding: retains its ability to bind PA1
[4]; replacing one of the S residues at positions 6 (or 3′) with a W
  Effect of substitution on binding: significantly attenuates, but does not abolish binding
[4]; substituting an S (G or C) at position 8
  Effect of substitution on binding: only subtly decreases binding
[4]; substituting any other position that prefers a W with an S residue
  Effect of substitution on binding: nearly abolishes binding
[5]; Data Point A, sequence ATGTACAT
  Ka: 70 10^9 M^−1
[5]; Data Point B, sequence AGTACT
  Ka: 37 10^9 M^−1
[5]; Data Point C, sequence ATCTACAT
  Ka: 3.2 10^9 M^−1
[5]; Data Point D, sequence ATATACAT
  Ka: 2.8 10^9 M^−1
[5]; Data Point E, sequence ATGTATTT
  Ka: 0.41 10^9 M^−1

B1: Exd: transcription factor essential in Drosophila development; used Cy3-labeled (Exd R2C, residues 1-88) on the array (protein, UniProt P40427 1-88, looked up, fragment)
chain: MEDPNRMLAHTGGMMAPQGYGLSGQDDGQNAGSENEVRKQKDIGEILQQIMSISEQSLDEAQARKHTLNCHRMKPALFSVLCEIKEKT
modifications: Cy3 label
notes: transcription factor essential in Drosophila development; used Cy3-labeled (Exd R2C, residues 1-88) on the array
[3]; Cy3-labeled Exd with PA2 or PA3
  Exd binding motif: 5′-NGAN-3′
[3]; Exd alone
  Sequence preference: unexpected preference for stretches of consecutive G-residues
[3]; Exd alone, 0.2-200 nM
  Sequence-specific binding: little sequence-specific binding
[6]
  Band shift of G-rich DNA: completely shifted

B2: G-rich hairpin DNA (structured_DNA)
DNA: CGCCCCCCCCCCGCTCCTGCGGGGGGGGGGCGTTTT
[7]
  binding result: binds
